ChEMBL document CHEMBL1155612, “Lyngbyabellin B, a toxic and antifungal secondary metabolite from the marine cyanobacterium Lyngbya majuscula” (J Nat Prod, 2000)
Active and inactive are the calls of the source. The rule behind the calls is not given here.

Experiments:
[1] = test system: Pseudomonas aeruginosa; assay: Antimicrobial activity against Pseudomonas aeruginosa ATCC 10145 by disk agar plate assay; assay type: functional, organism-based
[2] = test system: Bacillus subtilis; assay: Antimicrobial activity against Bacillus subtilis ATCC 6051 by disk agar plate assay; assay type: functional, organism-based
[3] = test system: Staphylococcus aureus; assay: Antimicrobial activity against Staphylococcus aureus ATCC 12600 by disk agar plate assay; assay type: functional, organism-based
[4] = test system: Escherichia coli; assay: Antimicrobial activity against Escherichia coli ATCC 11775 by disk agar plate assay; assay type: functional, organism-based
[5] = test system: Artemia; assay: Toxicity against brine shrimp after 24 hrs; assay type: organism-based; conditions: in vivo
[6] = test system: Candida albicans; assay: Antimicrobial activity against Candida albicans ATCC 14053 at 10 ug/disk by disk agar plate assay; assay type: functional, organism-based
[7] = test system: Candida albicans; assay: Antimicrobial activity against Candida albicans ATCC 14053 at 100 ug/disk by disk agar plate assay; assay type: functional; conditions: read-out: IZ
[8] = test system: Salmonella enterica subsp. enterica; assay: Antimicrobial activity against Salmonella choleraesuis subsp. choleraesuis ATCC 14028 by disk agar plate assay; assay type: functional, organism-based

**Q.** What does the source list for `CC(C)[C@@H]1NC(=O)CNC(=O)[C@@H]2CSC(=N2)[C@H](C(C)(C)O)OC(=O)C(C)(C)[C@H](CCCC(C)(Cl)Cl)OC(=O)c2csc1n2` [LYNGBYABELLIN B]?
**A.** Activity [1]: inactive; Activity [2]: inactive; Activity [3]: inactive; Activity [4]: inactive; LD50 [5]: 3 ppm; Activity [6]: Active; zone of inhibition at 100 µg/disc [7]: 10.5 mm; Activity [8]: inactive
